Test results from ChEMBL document CHEMBL1154022, “Efficient synthesis of 3,3-diheteroaromatic oxindole analogues and their in vitro evaluation for spermicidal potential” (Bioorg Med Chem Lett, 2009).

Key:
[1] = system: Spermatozoa; assay: Spermicidal activity in rat spermatozoa assessed as […]; type: functional; conditions: read-out: MEC
[2] = Toxicity against rabbit erythrocytes assessed as hemolytic index; type: cell-based, Oryctolagus cuniculus; conditions: erythrocyte

Row | SMILES | minimal effective concentration [1] [µg/mL] | Activity [2] [mg/mL]
1 | COc1ccc2[nH]cc(C3(c4c[nH]c5ccc(OC)cc45)C(=O)Nc4ccccc43)c2c1 | 340 | 3.3
2 | Cc1c(C2(c3[nH]c4ccccc4c3C)C(=O)Nc3ccccc32)[nH]c2ccccc12 | 1000 | –
3 | O=C1Nc2ccccc2C1(c1c[nH]c2ccc(Br)cc12)c1c[nH]c2ccc(Br)cc12 | 3180 | –
4 | O=C1Nc2ccccc2C1(c1c[nH]c2ccccc12)c1c[nH]c2ccccc12 | 2400 | –
5 | O=C(O)Cc1c(C2(c3[nH]c4ccccc4c3CC(=O)O)C(=O)Nc3ccccc32)[nH]c2ccccc12 | 530 | –
6 | Cc1[nH]c2ccccc2c1C1(c2c(C)[nH]c3ccccc23)C(=O)Nc2ccccc21 | 2820 | –
7 | O=C(O)c1[nH]c2ccccc2c1C1(c2c(C(=O)O)[nH]c3ccccc23)C(=O)Nc2ccccc21 | 1110 | –
8 | Cn1cc(C2(c3cn(C)c4ccccc34)C(=O)Nc3ccccc32)c2ccccc21 | 2360 | –
9 | O=C1Nc2ccccc2C1(c1ccc[nH]1)c1ccc[nH]1 | 3150 | –
10 | CCCCCCCCCc1ccc(OCCOCCOCCOCCOCCOCCOCCOCCOCCO)cc1 [NONOXYNOL 9] | 500 | –
